How the values were obtained:
Assay type in all cases: in vivo
[1] = system: crabgrass, large (Digitaria sanguinalis); assay: Test A postemergence; conditions: Digitaria sanguinalis, post-emergence, 240 h, Postemergence; for pest or weed control at 125 g/ha: 125 g ai/ha, visual rating about 10 d after treatment, read-out: Crabgrass, Large plant response rating (0 to 100 scale); for pest or weed control at 500 g/ha: 500 g ai/ha, visual injury, 0 to 100 scale (0 no effect, 100 complete control), approx. 10 d, read-out: Plant response rating, Crabgrass, Large
Outline: (§1)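 Treatment is preemergence as a directed soil spray after planting, or postemergence at the one- to two-leaf stage, with test chemical in a non-phytotoxic solvent mixture plus surfactant. Plants stay in the greenhouse about 10 d before visual injury scoring on a 0 to 100 scale versus untreated controls.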

[2] = system: morningglory (Ipomoea spp.); assay: Test A postemergence; conditions: Ipomoea, post-emergence, 240 h, Postemergence; for pest or weed control at 125 g/ha: 125 g ai/ha, visual rating about 10 d after treatment, read-out: Morningglory plant response rating (0 to 100 scale); for pest or weed control at 500 g/ha: 500 g ai/ha, visual injury, 0 to 100 scale (0 no effect, 100 complete control), approx. 10 d, read-out: Plant response rating, Morningglory
Outline: as §1

[3] = system: velvetleaf (Abutilon theophrasti); assay: Test A postemergence; conditions: Abutilon theophrasti, post-emergence, 240 h, Postemergence; for pest or weed control at 125 g/ha: 125 g ai/ha, visual rating about 10 d after treatment, read-out: Velvetleaf plant response rating (0 to 100 scale); for pest or weed control at 500 g/ha: 500 g ai/ha, visual injury, 0 to 100 scale (0 no effect, 100 complete control), approx. 10 d, read-out: Plant response rating, Velvetleaf
Outline: as §1

[4] = system: crabgrass, large (Digitaria sanguinalis); assay: Test A preemergence; conditions: Digitaria sanguinalis, pre-emergence, 240 h, 0 to 100 scale (0 no effect, 100 complete control), read-out: Plant response rating, Crabgrass, Large; for pest or weed control at 500 g/ha: 500 g ai/ha, preemergence; for pest or weed control at 125 g/ha: Preemergence, 125 g ai/ha
Outline: as §1

[5] = system: wheat (Triticum aestivum); assay: Test A preemergence; conditions: Triticum aestivum, pre-emergence, 240 h, 0 to 100 scale (0 no effect, 100 complete control), read-out: Plant response rating, Wheat; for plant injury at 500 g/ha: 500 g ai/ha, preemergence; for plant injury at 125 g/ha: Preemergence, 125 g ai/ha
Outline: as §1

[6] = system: morningglory (Ipomoea spp.); assay: Test A preemergence; conditions: Ipomoea, pre-emergence, 240 h, 0 to 100 scale (0 no effect, 100 complete control), read-out: Plant response rating, Morningglory; for pest or weed control at 500 g/ha: 500 g ai/ha, preemergence; for pest or weed control at 125 g/ha: Preemergence, 125 g ai/ha
Outline: as §1

[7] = system: corn (Zea mays); assay: Test A preemergence; conditions: Zea mays, pre-emergence, 240 h, 0 to 100 scale (0 no effect, 100 complete control); for Corn plant response rating (crop injury, 0 = no effect, 100 = complete kill) at 500 g/ha: 500 g ai/ha, preemergence; for Corn plant response rating (crop injury, 0 = no effect, 100 = complete kill) at 125 g/ha: Preemergence, 125 g ai/ha
Outline: as §1

[8] = system: velvetleaf (Abutilon theophrasti); assay: Test A preemergence; conditions: Abutilon theophrasti, pre-emergence, 240 h, 0 to 100 scale (0 no effect, 100 complete control), read-out: Plant response rating, Velvetleaf; for pest or weed control at 500 g/ha: 500 g ai/ha, preemergence; for pest or weed control at 125 g/ha: Preemergence, 125 g ai/ha
Outline: as §1

O=C1NCC(c2ccccc2)C1C(=O)Nc1ccccc1Oc1ccccc1 (stereo not drawn) [Compound 1357] gave a pest or weed control at 125 g/ha [1] of 0%, a pest or weed control at 500 g/ha [1] of 0% and a pest or weed control at 125 g/ha [2] of 0%. For the same compound, the pest or weed control at 500 g/ha [2] was 0%, the pest or weed control at 125 g/ha [3] was 0% and the pest or weed control at 500 g/ha [3] was 0%. For the same compound, the pest or weed control at 500 g/ha [4] was 0%, the pest or weed control at 125 g/ha [4] was 0% and the plant injury at 500 g/ha [5] was 0%. It also gave a plant injury at 125 g/ha [5] of 0%, a pest or weed control at 500 g/ha [6] of 0% and a pest or weed control at 125 g/ha [6] of 0%. The Corn plant response rating (crop injury, 0 = no effect, 100 = complete kill) at 500 g/ha [7] was 0%, the Corn plant response rating (crop injury, 0 = no effect, 100 = complete kill) at 125 g/ha [7] was 0% and the pest or weed control at 500 g/ha [8] was 0%. For the same compound, the pest or weed control at 125 g/ha [8] was 0%.

For O=C1NCC(c2ccccc2)C1C(=O)Nc1ccccc1 (stereo not drawn) [Compound 1358], the pest or weed control at 125 g/ha [1] was 0%, the pest or weed control at 500 g/ha [1] was 30% and the pest or weed control at 125 g/ha [2] was 0%. For the same compound, the pest or weed control at 500 g/ha [2] was 0%, the pest or weed control at 125 g/ha [3] was 0% and the pest or weed control at 500 g/ha [3] was 0%. For the same compound, the pest or weed control at 500 g/ha [4] was 80%, the pest or weed control at 125 g/ha [4] was 20% and the plant injury at 500 g/ha [5] was 50%. It also gave a plant injury at 125 g/ha [5] of 0%, a pest or weed control at 125 g/ha [6] of 0% and a Corn plant response rating (crop injury, 0 = no effect, 100 = complete kill) at 500 g/ha [7] of 0%. The Corn plant response rating (crop injury, 0 = no effect, 100 = complete kill) at 125 g/ha [7] was 0%, the pest or weed control at 500 g/ha [8] was 0% and the pest or weed control at 125 g/ha [8] was 0%.

With N#Cc1ccc(NC(=O)C2C(=O)NCC2c2ccccc2)cc1 (stereo not drawn) [Compound 1355] the pest or weed control at 125 g/ha [1] was 0%, the pest or weed control at 500 g/ha [1] was 0% and the pest or weed control at 125 g/ha [2] was 0%. The pest or weed control at 500 g/ha [2] was 0%, the pest or weed control at 125 g/ha [3] was 0% and the pest or weed control at 500 g/ha [3] was 0%. It also gave a pest or weed control at 500 g/ha [4] of 0%, a pest or weed control at 125 g/ha [4] of 0% and a plant injury at 500 g/ha [5] of 0%. For the same compound, the plant injury at 125 g/ha [5] was 0%, the pest or weed control at 500 g/ha [6] was 0% and the pest or weed control at 125 g/ha [6] was 0%. It also gave a Corn plant response rating (crop injury, 0 = no effect, 100 = complete kill) at 500 g/ha [7] of 0%, a Corn plant response rating (crop injury, 0 = no effect, 100 = complete kill) at 125 g/ha [7] of 0% and a pest or weed control at 500 g/ha [8] of 0%. For the same compound, the pest or weed control at 125 g/ha [8] was 0%.

O=C1NCC(c2ccccc2)C1C(=O)Nc1cccnc1 (stereo not drawn) [Compound 1356] showed a pest or weed control at 125 g/ha [1] of 0%, a pest or weed control at 500 g/ha [1] of 0% and a pest or weed control at 125 g/ha [2] of 0%. It also gave a pest or weed control at 500 g/ha [2] of 0%, a pest or weed control at 125 g/ha [3] of 0% and a pest or weed control at 500 g/ha [3] of 0%. The pest or weed control at 500 g/ha [4] was 0%, the pest or weed control at 125 g/ha [4] was 0% and the plant injury at 500 g/ha [5] was 0%. It also gave a plant injury at 125 g/ha [5] of 0%, a pest or weed control at 500 g/ha [6] of 0% and a pest or weed control at 125 g/ha [6] of 0%. The Corn plant response rating (crop injury, 0 = no effect, 100 = complete kill) at 500 g/ha [7] was 0%, the Corn plant response rating (crop injury, 0 = no effect, 100 = complete kill) at 125 g/ha [7] was 0% and the pest or weed control at 500 g/ha [8] was 0%. For the same compound, the pest or weed control at 125 g/ha [8] was 0%.

From US12077503B2, “Substituted cyclic amides and their use as herbicides” (FMC CORPORATION, priority 2015, dated 2024)
